Read-outs that look alike come from different tables or passages of the source.
Tests used:
F1F0-ATPase = molecular target: T1, F1F0-ATPase (Bos taurus, UniProt P13621); assay: Inhibition of F1F0-ATPase activity in synthesizing ATP; type: biochemical; settings: inhibition of ATP synthesis by F1F0-ATPase; read-out: ATP Syn IC50
T1 construct: from tissue

Ramos cells = assay: Cytotoxicity in Ramos cells; type: cell-based; settings: cytotoxicity in Ramos cells, read-out: Ramos Cell EC50

Compound | IC50 (F1F0-ATPase) [µM] | EC50 (Ramos cells) [µM] | EC50 (Ramos cells; Homo sapiens) [µM]
O=C(/N=C(/NCc1ccc(F)cc1Cl)Nc1cc(C(F)(F)F)[nH]n1)c1ccc(F)c(F)c1 [Compound A-24] | < 10 |  | < 10
N#Cc1cccc(C(=O)/N=C(\Nc2cc(-c3ccc(Cl)cc3)n[nH]2)NC2CCCC2)c1 [Compound A-302] | < 10 | < 10 | 
O=C(N=C(Nc1cc(-c2ccc(Cl)cc2)n[nH]1)NC1CCC1)c1ccc(F)c(F)c1 [Compound A-224] | < 10 |  | > 10
CC(C)CNC(=NC(=O)c1ccc(N2CCOCC2)nc1)Nc1cc(-c2ccc(F)cc2)n[nH]1 [Compound A-163] | < 10 |  | < 10
O=C(N=C(Nc1cc(-c2cc(F)cc(F)c2)n[nH]1)NC1CCC1)c1ccc(Cl)cc1 [Compound A-231] | < 10 |  | < 10
Cc1cccc(C(=O)/N=C(/NCc2ccc(F)cc2Cl)Nc2cc(C(F)(F)F)[nH]n2)c1 [Compound A-551] | < 10 | < 10 | 
O=C(/N=C(/NCc1ccc(F)cc1Cl)Nc1cc(-c2ccccc2)[nH]n1)c1ccc(Cl)c(F)c1 [Compound A-143] | < 10 | < 10 | 
COCC(C)NC(=NC(=O)c1ccc(F)cc1)Nc1cc(-c2ccc(Cl)cc2)n[nH]1 (stereo not drawn) [Compound A-276] | < 10 | < 10 | 
O=C(N=C(Nc1cc(F)cc(Cl)c1)Nc1cc(-c2cccc(C(F)(F)F)c2)[nH]n1)c1ccc(F)c(F)c1 [Compound A-422] | < 10 |  | < 10
CCC(C)N/C(=N/C(=O)c1ccc(F)cc1)Nc1cc(-c2ccc(Cl)cc2)n[nH]1 (stereo not drawn) [Compound A-209] | < 10 |  | < 10
CCC(C)N/C(=N/C(=O)c1ccc(F)cc1)Nc1cc(-c2ccc(C)c(F)c2)n[nH]1 (stereo not drawn) [Compound A-203] | < 10 |  | < 10
CC(C)CNC(=NC(=O)c1ccc(Cl)cc1)Nc1cc(-c2cc(F)cc(F)c2)n[nH]1 [Compound A-233] | < 10 |  | < 10
CC(C)N/C(=N/C(=O)c1ccc(Cl)cc1)Nc1cc(-c2ccc(F)cc2)n[nH]1 [Compound A-250] | < 10 | < 10 | 
O=C(/N=C(/Nc1cc(F)cc(Cl)c1)Nc1cc(-c2ccc(F)cc2)n[nH]1)c1ccc(F)c(F)c1 [Compound A-441] | < 10 | < 10 | 
O=C(/N=C(\Nc1cc(-c2ccc(Cl)cc2)n[nH]1)NC1CCCC1)c1cccc(F)c1 [Compound A-385] | < 10 | < 10 | 
COC[C@H](C)NC(=NC(=O)c1cccc(S(C)(=O)=O)c1)Nc1cc(-c2ccc(F)cc2)n[nH]1 [Compound A-491] | < 10 |  | > 10
CCC(C)N/C(=N/C(=O)c1cccc(OC)c1)Nc1cc(-c2ccc(Cl)cc2)n[nH]1 (stereo not drawn) [Compound A-170] | < 10 |  | < 10
O=C(N=C(Nc1cc(F)cc(Cl)c1)Nc1cc(-c2cc(F)cc(F)c2)[nH]n1)c1ccc(F)c(F)c1 [Compound A-419] | < 10 |  | < 10
O=C(/N=C(/Nc1cc(F)cc(Cl)c1)Nc1cc(C2CC2)[nH]n1)c1ccc(Cl)c(F)c1 [Compound A-146] | < 10 | < 10 | 
O=C(N=C(Nc1cc(-c2ccc(F)cc2)n[nH]1)NC1CCCC1)c1ccc(Cl)c(F)c1 [Compound A-221] | < 10 |  | < 10

Now from value to compound, other results behind:

IC50 (F1F0-ATPase) [µM] | Compound | EC50 (Ramos cells) [µM] | EC50 (Ramos cells; Homo sapiens) [µM]
< 10 | COc1cc(C(=O)/N=C(\Nc2cc(-c3ccc(F)cc3)n[nH]2)NC(C)(C)C)ccn1 [Compound A-496] | < 10 | 
< 10 | CC(C)C(C)N/C(=N/C(=O)c1ccc(C(F)(F)F)cc1)Nc1cc(-c2cc(F)cc(F)c2)n[nH]1 (stereo not drawn) [Compound A-295] | < 10 | 
< 10 | CC(C)(C)CN/C(=N/C(=O)c1ccc(C#N)cc1)Nc1cc(C(F)(F)F)[nH]n1 [Compound A-70] |  | < 10
< 10 | CC(N/C(=N/C(=O)c1ccc(F)c(F)c1)Nc1cc(C(F)(F)F)[nH]n1)c1ccccc1Cl (stereo not drawn) [Compound A-28] |  | < 10
< 10 | CC(C)(C)NC(=NC(=O)c1ccnc(N)c1)Nc1cc(-c2ccc(F)cc2)[nH]n1 [Compound A-486] |  | < 10
< 10 | O=C(/N=C(/NCc1ccc(F)cc1Cl)Nc1cc(-c2ccc(F)cc2)n[nH]1)c1ccc(C(F)(F)F)cc1 [Compound A-443] | < 10 | 
< 10 | CCC(C)(C)N/C(=N/C(=O)c1ccc(F)c(F)c1)Nc1cc(C(F)(F)F)n[nH]1 [Compound A-101] |  | < 10
< 10 | CC(C)(C)N/C(=N/C(=O)c1ccc(Cl)c(F)c1)Nc1cc(C(F)(F)F)[nH]n1 [Compound A-40] |  | < 10
< 10 | CC(C)N/C(=N/C(=O)c1ccc(Cl)cc1)Nc1cc(C(F)(F)F)n[nH]1 [Compound A-107] |  | < 10
< 10 | COCC(C)NC(=NC(=O)c1ccc(C(F)(F)F)cc1)Nc1cc(-c2ccc(Cl)cc2)n[nH]1 (stereo not drawn) [Compound A-238] |  | < 10
< 10 | CC(C)(C)N/C(=N/C(=O)c1ccc(F)c(F)c1)Nc1cc(-c2cc(F)cc(Cl)c2)n[nH]1 [Compound A-290] | < 10 | 
< 10 | COC(=O)Cc1ccc(N/C(=N/C(=O)c2ccc(F)cc2)Nc2cc(C(F)(F)F)n[nH]2)cc1 [Compound A-173] |  | < 10
< 10 | CC(C)(C)N/C(=N/C(=O)c1ccc(F)c(F)c1)Nc1cc(-c2cc(F)cc(F)c2)[nH]n1 [Compound A-420] | < 10 | 
< 10 | CC(C)(C)CN/C(=N/C(=O)c1cccc(C#N)c1)Nc1cc(C(F)(F)F)[nH]n1 [Compound A-72] |  | < 10
< 10 | COc1ccc(-c2cc(N/C(=N\C(=O)c3ccc(C(F)(F)F)cc3)NCC(C)C)[nH]n2)cc1F [Compound A-571] | < 10 | 
< 10 | COc1ccc(C(=O)N=C(NCc2ccc(F)cc2Cl)Nc2cc(C(F)(F)F)n[nH]2)cc1 [Compound A-541] |  | < 10
< 10 | O=C(/N=C(/NCc1ccc(F)cc1Cl)Nc1cc(C(F)(F)F)[nH]n1)c1ccc(C(F)(F)F)cc1 [Compound A-18] |  | < 10
< 10 | Cc1cc(N/C(=N\C(=O)c2ccc(C(F)(F)F)cc2)NC(C)(C)C)n[nH]1 [Compound A-125] | < 10 | 
< 10 | Cc1cc(C(=O)N=C(Nc2cc(C(F)(F)F)[nH]n2)NC(C)CO)ccc1F (stereo not drawn) [Compound A-404] | > 10 | 
< 10 | CC(C)(C)N/C(=N/C(=O)c1ccc(C(F)(F)F)cc1)Nc1cc(C(F)(F)F)n[nH]1 [Compound A-13] |  | < 10
< 10 | CC(C)(C)CN/C(=N/C(=O)c1ccc(F)cc1)Nc1cc(-c2ccc(F)cc2)[nH]n1 [Compound A-514] | < 10 | 
< 10 | C[C@H](N/C(=N\C(=O)c1ccc(Cl)cc1)Nc1cc(C(F)(F)F)n[nH]1)C1CCCCC1 [Compound A-109] |  | < 10
< 10 | CC(N/C(=N/C(=O)c1ccc(Cl)cc1)Nc1cc(C(F)(F)F)[nH]n1)c1cccc(Cl)c1 (stereo not drawn) [Compound A-35] |  | < 10
< 10 | O=C(/N=C(/NCc1ccc(F)c(Cl)c1)Nc1cc(C(F)F)[nH]n1)c1ccc(C(F)(F)F)cc1 [Compound A-59] |  | > 10
< 10 | CC(N/C(=N/C(=O)c1ccc(F)c(F)c1)Nc1cc(C(F)(F)F)[nH]n1)c1ccc(Cl)cc1 (stereo not drawn) [Compound A-29] |  | < 10

— patent US9139532B2, “Pyrazolyl guanidine F1F0-atpase inhibitors and therapeutic uses thereof” (Lycera Corporation, priority 2010, dated 2015)
